Measured values reported in ChEMBL document CHEMBL2176940, “Discovery of ligands for ADP-ribosyltransferases via docking-based virtual screening” (J Med Chem, 2012).

Target: T1, Protein mono-ADP-ribosyltransferase PARP15 (Homo sapiens) (UniProt Q460N3)
T1 sequence (whole entry): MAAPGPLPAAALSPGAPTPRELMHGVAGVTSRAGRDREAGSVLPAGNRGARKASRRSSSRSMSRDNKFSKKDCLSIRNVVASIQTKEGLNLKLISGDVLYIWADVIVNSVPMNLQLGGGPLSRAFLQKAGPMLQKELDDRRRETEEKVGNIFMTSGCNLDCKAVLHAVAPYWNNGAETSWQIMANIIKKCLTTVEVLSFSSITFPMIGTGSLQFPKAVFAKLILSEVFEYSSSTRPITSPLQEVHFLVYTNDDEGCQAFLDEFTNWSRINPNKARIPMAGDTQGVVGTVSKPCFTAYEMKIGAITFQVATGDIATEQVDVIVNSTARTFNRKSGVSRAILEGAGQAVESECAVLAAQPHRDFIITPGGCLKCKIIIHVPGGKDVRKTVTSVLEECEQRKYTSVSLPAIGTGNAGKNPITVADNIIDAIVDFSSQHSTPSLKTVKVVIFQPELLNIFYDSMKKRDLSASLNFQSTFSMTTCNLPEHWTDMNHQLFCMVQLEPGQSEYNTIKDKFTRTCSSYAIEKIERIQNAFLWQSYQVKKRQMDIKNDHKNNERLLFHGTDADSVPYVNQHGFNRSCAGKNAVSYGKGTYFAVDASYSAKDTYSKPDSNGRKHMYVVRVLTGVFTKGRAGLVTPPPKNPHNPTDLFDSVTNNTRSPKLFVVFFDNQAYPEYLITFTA
Description: Binding affinity at human recombinant ARTD7 expressed in Escherichia coli BL21 (DE3) R3 pRARE cells assessed as thermal stability shift by differential scanning fluorimetry

With `NC(=O)c1cccc(NC(=O)/C=C\C(=O)O)c1` as the compound, how does the ΔTm read?
The ΔTm was 0.8 °C.
